Data: patent publication US20230149374A1, “METHODS AND COMPOSITIONS FOR TREATING ATHEROSCLEROSIS” (Sanford Burnham Prebys Medical Discovery Institute, priority 2021, published 2023)
“Also recorded” adds a separate entry of the source.

Columns and labels:
Assay type in all cases: in vivo, mouse
[1] = test system: ApoE-deficient mice; test: Quantitative PCR of transcript levels in the abdominal aorta; conditions: 30 mg/kg/day, 25 weeks, vs control
Excerpt: (§1) Four cohorts of mice were used in these studies (FIGS. 8A and 9A). Cohorts 1 and 2 were devoted to the in vivo and ex vivo characterization of TNAP-associated plaque calcification. 6-week-old ApoE-deficient male mice were received at the animal facility and placed in conventional cages with 5 mice per cage. Mice were maintained on a 12-hrs light-dark cycle (7:00 am-7:00 pm) and were supplied with food and water ad libitum. From 10 weeks of age, they were fed ad libitum with a high fat diet (HFD, D12108C, Research Diets, New Brunswick, USA) containing 40% fat (kcal) and 1.25% cholesterol (weight). In cohort 1, 8 mice were sacrificed every 2 weeks between weeks 17 to 31, for histological and molecular analyses. Total body weight was measured weekly after starting the HFD. The sacrifice was done after anesthesia with isoflurane and intracardiac blood puncture by CO2 inhalation. Tissues were harvested as described below. The abdominal aorta was used for quantitative polymerase chain reaction (PCR) analyses. Mice from cohort 2 were used to analyze aorta calcification with ^18F—NaF μPET and μCT and to compare the in vivo data with the ex vivo results obtained in cohort 1. Animals were transferred from the animal facility to the Cermep imaging platform. Cohorts 3 and 4 were used to determine in vivo and ex vivo the impact of TNAP inhibition on the vasculature, liver, bones, and kidneys. According to the results obtained in cohorts 1 and 2, TNAP inhibitor SBI-425 (30 mg/kg/day, formulated as a food admixture in the HFD) was administered in a preventive manner from 10 weeks of age. Treatment was stopped at 25 weeks or 31 weeks of age. Plaque calcification was analyzed at 25 weeks, and possible side effects of TNAP inhibition were explored in mice aged 31 weeks. Mice in cohort 3 (2 groups of 13 mice) were used for ex vivo analysis, and mice in cohort 4 (2 groups of 12 mice) for in vivo imaging and ex vivo analyses.
Mouse tissues: total RNAs were extracted from grinded abdominal aorta with the NucleoSpin RNA II kit (Macherey-Nagel) following the manufacturers' protocol. The quantity and quality of RNA were determined using a NanoDrop. RNA (1 μg) was retro-transcribed into cDNA with Superscript II reverse transcriptase (Life Technologies). PCR analysis was conducted using SYBR green Supermix (Biorad) on the iCycler Real-Time Detection system (Biorad). Fold change in mRNA expression was calculated using the 2^−Δcq method by the CFX Manager software (Biorad). Data were normalized by 3 housekeeping genes (HPRT, Actin and Rpl13a) levels.

[2] = test system: ApoE-deficient mice; test: Liver content of cholesterol, triglycerides, bile acids, hydroxyproline; conditions: 30 mg/kg/day, 25 weeks, vs control
Excerpt: as §1
For the determination of cholesterol, triglycerides, and total bile acids in liver, 40-mg pieces of liver were homogenized in 1 mL of 5% NP40 solution in a dounce homogenizer. The hydrophobic components were extracted twice at 80° C. for 5 minutes. The samples were centrifuged, and the supernatants were assayed for cholesterol, triglycerides and bile acids with the same kits used for blood. In order to quantify hydroxyproline, 100 mg pieces of liver were homogenized in 1 mL of pure water in a dounce homogenizer and a perchlorate-free kit from Sigma was used (MAK357).

[3] = test system: ApoE-deficient mice; test: Plaque histology: osteosense staining of calcifications, oil red O staining; conditions: ApoE-deficient mice on HFD, 30 mg/kg/day from 10 to 25 weeks
Excerpt: as §1
After euthanasia, the heart and vasculature were perfused with sterile NaCl 0.9%. The aortic root and the aortic arch, with the major arteries that stem from them (brachiocephalic, left common carotid and left subclavian), were dissected and frozen in optimal cutting temperature medium (OCT, Thermo Scientific) and stored at −80° C. before serial cryo-sectioning. The aortic root, aortic arch and carotid were dissected under a microscope, frozen in optimal cutting medium (OCT, Thermo Scientific) and stored at −80° C. before serial cryo-sectioning. […] Calcification was imaged by near infrared fluorescence (NIRF) with the calcium tracer osteosense (OS) (PerkinElmer, ex/em 650/680 nm). […] Quantification was performed by computer image analysis using Image J software (NIH, Bethesda, Md.) by averaging of measurements from 2 sections of 15 μm apart using ImageJ software. […]

COc1ccc(Cl)cc1S(=O)(=O)Nc1cncc(C(N)=O)c1 [SBI-425]
Acan transcript level (chondrocyte marker), abdominal aorta [1]: not accompanied by reduced levels
Alpl transcript level (chondrocyte marker), abdominal aorta [1]: not accompanied by reduced levels
Cd68 transcript level (inflammatory marker), abdominal aorta [1]: significantly decreased
Il6 transcript level (inflammatory marker), abdominal aorta [1]: significantly decreased
Il8 transcript level (inflammatory marker), abdominal aorta [1]: significantly decreased
Opn transcript level (inflammatory marker), abdominal aorta [1]: significantly decreased
Rankl transcript level (inflammatory marker), abdominal aorta [1]: significantly decreased
Runx2 transcript level (chondrocyte marker), abdominal aorta [1]: not accompanied by reduced levels
Sox9 transcript level (chondrocyte marker), abdominal aorta [1]: not accompanied by reduced levels
liver TG content [2]: not increased
liver bile acids levels [2]: did not change
liver cholesterol levels [2]: did not change
liver hydroxyproline levels (liver fibrosis) [2]: unchanged
mice that formed calcifications, by histology ([3]; OS staining, control 13 out of 13): 9 out of 13
number of calcifications per mice ([3]; OS staining, vs control): lower
plaque lipids (lipid surface) ([3]; oil red O, vs control): less lipids
plaque size (plaque surface) ([3]; oil red O, vs control, 30 mg/kg/day): smaller; also recorded: reduced
